In patent US11185527B2, “Methods and compositions relating to steroid hormone receptor-dependent cancers” (Wayne State University, priority 2017, dated 2021):

Assays:
[1] = system: DU145 (prostate cancer cells), AR-negative; experiment: Cell monolayer growth assay (MTT); type: cell-based
Description: FIG. 12A is a graph showing the effect of KCI807 on in vitro growth of AR-negative cell line Du145 cells measured by the MTT assay. All values were plotted relative to the Day zero value.
FIG. 16E is a graph showing the effect of 5′-Fluoro-5,3′-Dihydroxyflavone at various concentrations on growth of DU145 cells.
Cells were trypsinized and 3000-4000 cells/well were seeded in 96-well plates coated with poly-D-lysine. The cells were seeded in phenol red-free medium supplemented with 10% FBS, 100 units/ml penicillin, 100 μg/ml streptomycin, 2 mM L-glutamine mixture and sodium pyruvate (1 mM) for LNCaP cells and phenol red-free medium supplemented with 10% FBS, 100 units/ml penicillin, 100 μg/ml streptomycin and 2 mM L-glutamine mixture for VCaP, 22Rv1, DU145, HeLa, HEK293 and H1650 cells. The cells were grown at 37° C. in 5% CO2. Twenty four hours after seeding in the 96-well plates, the cells were treated with the indicated concentration of KCI807 or DMSO (vehicle). The cells were re-treated on Day 3 by removing half the volume of medium and replacing it with fresh treated medium. Cell viability was determined using the MTT assay from day zero until day five. […] The formazan crystal sediments were dissolved in 100 μL of DMSO, and the absorbance at 570 nm was measured using the BioTek Synergy 2 Microplate Reader (BioTek, Winooski, Vt.). […]

[2] = system: PDX-PR011 tumor xenograft; experiment: PDX-PR011 patient-derived CRPC tumor xenograft in male SCID mice, tumor growth; type: in vivo, mouse; conditions: treatment from Day 1; KCI807 IP as for 22Rv1; enzalutamide oral 50 mg/Kg daily
Description: FIG. 5B is a graph showing results obtained when PDX-PR011 tumor xenografts were implanted sc into male SCID mice in both flanks. The vehicle control and KCI807 were administered as described for FIG. 5A with the exception that treatment was begun on Day 1 after tumor implantation. Tumor volumes were monitored as described herein.
FIG. 14 is a graph showing results obtained when PDX-PR011 tumor xenografts were implanted sc into male SCID mice in both flanks. […] Treatment was begun on Day 1 after tumor implantation.

[3] = system: ELK1-dependent promoter activation by AR; experiment: Primary screening assay: luciferase reporter in recombinant HeLa cells (Gal4-TATA-Luc, Gal4-ELK1, AR) treated with testosterone; type: cell-based, human
Source text: FIG. 6A is a schematic diagram of the reporter system for the primary screening assay. Recombinant HeLa cells used in this assay harbor the Gal4-TATA-Luc promoter-reporter, and stably express a Gal4-ELK1 fusion protein as well as the androgen receptor (AR). Gal4-ELK1 is bound to the Gal4 elements in the promoter. In the absence of testosterone (small circle), AR is localized in the cytoplasm. When testosterone is present it binds to AR causing AR to translocate to the nucleus where it then binds to Gal4-ELK1 and activates the downstream luciferase reporter.
HeLa HLR cells obtained from Dr. Johann Hofman (Innsbruck Medical University), which were originally designed to serve as a cell-based assay system to measure modulation of MAPK activity. HeLa HLR cells have a stably integrated minimal promoter-luciferase reporter containing five upstream Gal4 elements (Gal4-TATA-Luc) and also constitutively express a Gal4-ELK1 fusion protein in which the Gal4 DNA binding domain is substituted for the ETS DNA binding domain of ELK1. In order to produce recombinant cell lines for high throughput screening and counter screening of small molecule libraries, HeLa HLR were stably transduced with a vector expressing the full-length AR. A sequence encoding the full length AR (SEQ ID NO:9) was subcloned from the pCMV expression vector (Origene) into the pCDH-CMV-MCS-EF1-Puro cDNA Cloning and Expression Vector (System Biosciences) at NheI (upstream) and BamHI (downstream) sites. The lentiviral vector expressing full length AR was then packaged in lentivirus and the HeLa HLR cells were infected as described below in the sub-section “Lentivirus-mediated-Transduction.” After 72 hours (h) of infection, 2 ug/mL of puromycin was added to the culture medium to select for the transduced cells. The cells were plated at low density for colony formation (20-40 colonies) in a 100 mm dish. Clonal cells were isolated using cloning cylinders from CORNING (Cat. #3166-8). The selected clones were further expanded and then tested for luciferase induction by testosterone. The clone that gave the greatest luciferase signal to noise ratio in response to testosterone treatment was then chosen for use in the primary screening assay for high throughput small molecule screening.
For high throughput screening, recombinant primary screening cells were first depleted of hormone by growing them for 24h in medium in which the serum used was heat-inactivated and charcoal-stripped. The cells were then plated in 384-well white flat bottom plates (5,000 cells/well) (Corning Product #3570) using a Multidrop (Thermo Fisher Scientific, Waltham, Mass.). The plates were then incubated for 24h prior to adding test compounds. The following day test compounds from the LOPAC, Prestwick, or Maybridge Hitfinder libraries were added precisely in a 0.2 μL volume in the test wells using a Biomek FX liquid handler (Beckman Coutler, Break, Calif.) to achieve final media concentration of 10 μM of each test compound. Using the Multidrop (ThermoLab Systems, Helsinki, Finland), testosterone was added in addition to the test compounds to achieve a final media concentration of 10 nM. As the test compounds were re-constituted from powder stocks using dimethyl sulfoxide (DMSO) as the solvent, the final media concentration of DMSO was 0.4% v/v. For the assay negative control on each plate, one row of wells on each plate contained 10 nM testosterone and 0.4% v/v of DMSO. For the assay positive control on each plate, one row of wells on each plate contained 10 nM testosterone and 10 uM enzalutamide dissolved in DMSO (0.4% v/v of DMSO in the wells). The plates were incubated for 24h at 37° C. in 5% CO2. The medium was then aspirated leaving a residual volume 10 μl using an Elx 405-plate washer (Bio Tek U.S.). Then, 10 uL of the assay reagent Bright-Glo (Promega Corp., Madison Wis.) was added to each well. […]

| SMILES | growth of DU145 cells [1] | tumor growth inhibition, PDX-PR011 xenograft [2] | inhibition of ELK1-dependent promoter activation by AR (in words) ([3]; testosterone-treated recombinant HeLa cells, luciferase) | selectivity for ELK1-dependent versus ARE-dependent promoter activity ([3]; primary versus counter screening assay) |
| --- | --- | --- | --- | --- |
| O=c1cc(-c2cccc(O)c2)oc2cccc(O)c12 [KCI807, 5,3′-dihydroxyflavone] | did not appreciably affect the growth | significantly inhibited |  |  |
| CNC(=O)c1ccc(N2C(=S)N(c3ccc(C#N)c(C(F)(F)F)c3)C(=O)C2(C)C)cc1F [enzalutamide] |  | not inhibited | completely suppressed the signal |  |
| O=c1cc(-c2cc(O)cc(F)c2)oc2cccc(O)c12 [5′-fluoro-5,3′-dihydroxyflavone] | did not inhibit growth |  |  | more selective for the ELK1-dependent promoter activity than ARE-dependent activity |
